Reference: ChEMBL document CHEMBL6109121, “Discovery of Novel Sulfonylurea NLRP3 Inflammasome Inhibitor for the Treatment of Multiple Inflammatory Diseases” (J Med Chem, 2025)
pIC50: −log10 of the molar value. Calls of active or inactive are those of the source. No cut-off for these calls is given here.

Experiments:
[1] = Inhibition of NLRP3 inflammasome activation in LPS/ATP-stimulated male C57BL/6J mouse BMDM cells assessed as inhibition of IL-1beta secretion […] for 4 hrs followed by compound administration for 30 mins and measured after 1 hrs of ATP addition by ELISA; assay type: cell-based
[2] = Cytotoxicity against male C57BL/6J mouse BMDM cells; assay type: functional
Mus musculus [3] = assay: Anti-colitis activity in DSS-induced acute ulcerative colitis male C57BL/6J mouse model assessed as decrease in disease activity index score at 5 mg/kg, po preadministered with DSS for 7 days followed by 3 days of drinking water and measured after 10 days of compound administration; assay type: functional, organism-based; details: time 10.0 day
[4] = Inhibition of NLRP3 inflammasome activation in human THP-1 cells assessed as inhibition of IL-1beta release; assay type: cell-based
Mus musculus [5] = assay: Anti-colitis activity in DSS-induced acute ulcerative colitis male C57BL/6J mouse model assessed as improvement in stool consistency at 5 mg/kg, po preadministered with DSS for 7 days followed by 3 days of drinking water and measured after 10 days of compound administration; assay type: functional, organism-based; details: time 10.0 day
Mus musculus [6] = assay: Anti-colitis activity in DSS-induced acute ulcerative colitis male C57BL/6J mouse model assessed as reduction in fecal bleeding at 5 mg/kg, po preadministered with DSS for 7 days followed by 3 days of drinking water and measured after 10 days of compound administration; assay type: functional, organism-based; details: time 10.0 day
Mus musculus [7] = assay: Antidiabetic activity in HFD-fed STZ-induced diabetic kidney disease male C57BL/6J mouse model assessed as improvement of glucose tolerance at 20 mg/kg fed with high fat diet for 4 weeks followed by STZ administration for 5 days further administered with compound via gavage for 6 weeks and measured after 120 mins of glucose administration by OGTT; assay type: functional, organism-based; details: time 60600.0 min
[8] = target: NACHT, LRR and PYD domains-containing protein 3 (Mus musculus) (UniProt Q8R4B8); details: C57BL/6J, dose 20.0 mg/kg, route po, time 13.0 hrs
Mus musculus [9] = assay: Anti-colitis activity in DSS-induced acute ulcerative colitis male C57BL/6J mouse model assessed as reduction in body weight loss at 5 mg/kg, po preadministered with DSS for 7 days followed by 3 days of drinking water and measured after 10 days of compound administration; assay type: functional, organism-based; details: time 10.0 day
Mus musculus [10] = assay: Effect on TNF-alpha level in serum of LPS/ATP-induced acute peritonitis male C57BL/6J mouse model at 20 mg/kg, po preadministered with compound for 1 hrs followed by LPS addition for 2 hrs and measured 12 hrs post ATP administration by ELISA; assay type: functional, organism-based; details: time 13.0 hrs
Mus musculus [11] = assay: Anti-colitis activity in DSS-induced acute ulcerative colitis male C57BL/6J mouse model assessed as increase in colon length at 5 mg/kg, po preadministered with DSS for 7 days followed by 3 days of drinking water and measured after 10 days of compound administration; assay type: functional, organism-based; details: time 10.0 day
Mus musculus [12] = assay: Antidiabetic activity in HFD-fed STZ-induced diabetic kidney disease male C57BL/6J mouse model assessed as reduction in macrophage infiltration in kidney at 20 mg/kg fed with high fat diet for 4 weeks followed by STZ administration for 5 days and measured 6 weeks post compound administration via gavage by F4/80 immunostaining based analysis; assay type: functional, organism-based

Sequence of NACHT, LRR and PYD domains-containing protein 3 (Mus musculus) (Q8R4B8 whole entry, the tested form may be a part): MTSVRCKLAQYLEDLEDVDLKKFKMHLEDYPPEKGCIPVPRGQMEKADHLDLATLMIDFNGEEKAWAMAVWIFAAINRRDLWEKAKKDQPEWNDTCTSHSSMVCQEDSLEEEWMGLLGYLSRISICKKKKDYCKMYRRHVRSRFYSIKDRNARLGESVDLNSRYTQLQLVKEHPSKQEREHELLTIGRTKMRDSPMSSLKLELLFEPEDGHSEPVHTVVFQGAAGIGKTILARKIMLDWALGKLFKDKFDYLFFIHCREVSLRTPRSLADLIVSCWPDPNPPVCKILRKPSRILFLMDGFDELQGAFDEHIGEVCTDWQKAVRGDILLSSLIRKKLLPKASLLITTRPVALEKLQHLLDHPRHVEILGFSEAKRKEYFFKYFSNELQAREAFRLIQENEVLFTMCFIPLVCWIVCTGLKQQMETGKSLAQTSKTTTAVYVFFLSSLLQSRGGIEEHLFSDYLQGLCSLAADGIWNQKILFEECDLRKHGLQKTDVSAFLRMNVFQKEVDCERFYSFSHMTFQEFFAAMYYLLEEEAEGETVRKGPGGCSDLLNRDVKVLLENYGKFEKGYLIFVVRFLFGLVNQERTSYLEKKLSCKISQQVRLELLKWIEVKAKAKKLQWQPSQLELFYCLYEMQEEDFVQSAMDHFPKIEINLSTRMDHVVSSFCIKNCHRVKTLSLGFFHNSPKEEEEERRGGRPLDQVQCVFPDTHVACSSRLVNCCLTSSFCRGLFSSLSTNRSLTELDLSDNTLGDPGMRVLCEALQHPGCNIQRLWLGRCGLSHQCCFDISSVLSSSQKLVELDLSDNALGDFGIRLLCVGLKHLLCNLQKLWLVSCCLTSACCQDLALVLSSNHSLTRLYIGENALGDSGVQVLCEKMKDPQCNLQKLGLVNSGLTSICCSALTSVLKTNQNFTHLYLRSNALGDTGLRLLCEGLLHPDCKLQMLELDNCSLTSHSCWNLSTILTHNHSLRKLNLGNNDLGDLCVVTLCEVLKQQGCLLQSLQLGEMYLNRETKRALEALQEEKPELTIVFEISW

CN(C1CCN(Cc2ccccc2)CC1)S(=O)(=O)NC(=O)Nc1c2c(cc3c1CCC3)CCC2
pIC50 [1]: < 4.30
CC50 [2]: > 100 µM

CN1CCC(N(C)S(=O)(=O)NC(=O)Nc2ccc3c(c2)Cc2ccccc2-3)CC1
pIC50 [1]: < 4.30
CC50 [2]: > 100 µM

CN1CCC(NS(=O)(=O)NC(=O)Nc2c3c(cc4c2CCC4)CCC3)CC1
pIC50 [1]: 6.01
CC50 [2]: > 100 µM

CN1CCC(N(C)S(=O)(=O)NC(=O)Nc2cccc3c2NC(=O)C3)CC1
pIC50 [1]: < 4.30
CC50 [2]: > 100 µM

Cc1ccc2cccc(NC(=O)NS(=O)(=O)N(C)C3CCN(C)CC3)c2n1
pIC50 [1]: < 4.30
CC50 [2]: > 100 µM

CC(C)(O)c1coc(S(=O)(=O)NC(=O)Nc2ccccc2C(=O)c2ccoc2)c1
pIC50 [1]: < 4.30
CC50 [2]: > 100 µM

O=C(Nc1c2c(cc3c1CCC3)CCC2)NS(=O)(=O)N1CCc2ccccc2C1
pIC50 [1]: 6.50
CC50 [2]: > 100 µM

CC(C)(O)c1coc(S(=O)(=O)NC(=O)Nc2ccccc2C(=O)N2CCCC2)c1
pIC50 [1]: 4.72
CC50 [2]: > 100 µM

CN1CCC(N(C)S(=O)(=O)NC(=O)Nc2cccc3c2oc2ccccc23)CC1
pIC50 [1]: < 4.30
CC50 [2]: > 100 µM

CN1CCC(N(C)S(=O)(=O)NC(=O)Nc2cc(C(C)(C)C)ccc2-c2ccc(C(C)(C)C)cc2)CC1
pIC50 [1]: < 4.30
CC50 [2]: 10.2 µM

CN1CCC(N(C)S(=O)(=O)NC(=O)Nc2ccccc2C(=O)c2ccccc2)CC1
pIC50 [1]: 4.75
CC50 [2]: > 100 µM

CC(C)(O)c1coc(S(=O)(=O)NC(=O)Nc2ccccc2Oc2ccccc2)c1
pIC50 [1]: < 4.30
CC50 [2]: > 100 µM

CN1CCC(N(C)S(=O)(=O)NC(=O)Nc2cccc3c2C(=O)c2ccccc2-3)CC1
pIC50 [1]: < 4.30
CC50 [2]: > 100 µM

O=C(Nc1c2c(cc3c1CCC3)CCC2)NS(=O)(=O)N1CCNC2(CC2)C1
pIC50 [1]: 5.69
CC50 [2]: > 100 µM

CN(C)C(=O)c1ccccc1NC(=O)NS(=O)(=O)c1cc(C(C)(C)O)co1
pIC50 [1]: < 4.30
CC50 [2]: > 100 µM

CC(C)(O)c1coc(S(=O)(=O)NC(=O)Nc2ccccc2C(=O)c2ccccn2)c1
pIC50 [1]: < 4.30
CC50 [2]: > 100 µM

CN1CCC(N(C)S(=O)(=O)NC(=O)Nc2c3c(cc4c2CCC4)CCC3)C1 (centres undefined)
pIC50 [1]: 6.91
CC50 [2]: > 100 µM

O=C(Nc1c2c(cc3c1CCC3)CCC2)NS(=O)(=O)Nc1cnn(C2CCOCC2)c1
pIC50 [1]: 6.86
CC50 [2]: > 100 µM

CC(C)N1CCC(NS(=O)(=O)NC(=O)Nc2c3c(cc4c2CCC4)CCC3)CC1
pIC50 [1]: 5.54
CC50 [2]: > 100 µM

Cn1cc(NS(=O)(=O)NC(=O)Nc2c3c(cc4c2CCC4)CCC3)cn1
pIC50 [1]: 6.81
CC50 [2]: > 100 µM

CN(C1CCOCC1)S(=O)(=O)NC(=O)Nc1c2c(cc3c1CCC3)CCC2
pIC50 [1]: 6.26
CC50 [2]: > 100 µM

CC(C)(O)c1coc(S(=O)(=O)NC(=O)Nc2ccccc2C(=O)c2ccccc2)c1
pIC50 [1]: 5.42
CC50 [2]: > 100 µM

O=C(Nc1c2c(cc3c1CCC3)CCC2)NS(=O)(=O)N1CCC(F)(F)CC1
pIC50 [1]: 5.95
CC50 [2]: > 100 µM

O=C(Nc1c2c(cc3c1CCC3)CCC2)NS(=O)(=O)NC1CCN(C2CC2)CC1
pIC50 [1]: 5.71
CC50 [2]: > 100 µM

CC(C)(O)c1coc(S(=O)(=O)NC(=O)Nc2c3c(cc4c2CCC4)CCC3)c1
Activity (Mus musculus [3]): Active
pIC50 [1]: 7.44
pIC50 [4]: 7.24
Activity (Mus musculus [5]): Active
Activity (Mus musculus [6]): Active
Activity (Mus musculus [7]): inactive
inhibition [8]: Active
Activity (Mus musculus [9]): Active; Significant Difference Not Observed
Activity (Mus musculus [10]): inactive
Activity (Mus musculus [11]): inactive
Activity (Mus musculus [12]): inactive

CC(=O)N1CCC(NS(=O)(=O)NC(=O)Nc2c3c(cc4c2CCC4)CCC3)CC1
pIC50 [1]: 5.27
CC50 [2]: > 100 µM

CN1CCC(N(C)S(=O)(=O)NC(=O)Nc2cccc3c2OCO3)CC1
pIC50 [1]: < 4.30
CC50 [2]: > 100 µM

C=C(c1ccccc1)c1ccccc1NC(=O)NS(=O)(=O)c1cc(C(C)(C)O)co1
pIC50 [1]: 4.70
CC50 [2]: > 100 µM

CC(C)(O)c1coc(S(=O)(=O)NC(=O)Nc2ccccc2C(=O)N2CCOCC2)c1
pIC50 [1]: < 4.30
CC50 [2]: > 100 µM

CCN1CCC(N(C)S(=O)(=O)NC(=O)Nc2c3c(cc4c2CCC4)CCC3)CC1
pIC50 [1]: 6.14
CC50 [2]: > 100 µM

CC(C)(O)c1coc(S(=O)(=O)NC(=O)Nc2ccccc2Sc2ccccc2)c1
pIC50 [1]: 4.46
CC50 [2]: > 100 µM

CN1CCC(n2cc(NS(=O)(=O)NC(=O)Nc3c4c(cc5c3CCC5)CCC4)cn2)CC1
pIC50 [1]: 5.52
CC50 [2]: > 100 µM

CN(c1ccncc1)S(=O)(=O)NC(=O)Nc1c2c(cc3c1CCC3)CCC2
pIC50 [1]: 5.35
CC50 [2]: > 100 µM

CC(C)(O)c1coc(S(=O)(=O)NC(=O)Nc2ccccc2Cc2ccccc2)c1
pIC50 [1]: < 4.30
CC50 [2]: > 100 µM

O=C(Nc1c2c(cc3c1CCC3)CCC2)NS(=O)(=O)N1CCN2CCC1CC2
pIC50 [1]: 6.73
CC50 [2]: > 100 µM
